# Assay results: patent US11535597B2, “Photoreactive ligands and uses thereof” (The Scripps Research Institute, priority 2017, dated 2022)
# “Also recorded” adds a separate entry of the source.
# Experiments:
# PTGR2 [1] = biological target: T1, PTGR2 (Homo sapiens, UniProt Q8N8N7); test: PPARγ luciferase reporter assay in PTGR2-transfected HEK293T cells (15-keto-PGE2-dependent); assay type: cell-based; details: cells recombinantly expressing PTGR2
# Protocol: HEK293T cells were transiently co-transfected using Polyethylenimine (Sigma) with a UAS-Luciferase reporter and a vector expressing the heterologous GAL4 DNA binding domain (DBD) or a GAL4 DNA binding domain::PPARγ ligand binding domain (LBD) chimeric protein, and full-length PTGR2. 24 hr after transfection, cells were treated either with vehicle (DMSO), 15k-PGE2 (20 μM), or fragment compounds. Rosiglitazone (2 μM), a synthetic PPARγ ligand, was used as control. 16 hr after incubation, cells were lysed in Cell Culture Lysis Reagent (Promega) and luciferase activity measured using the Luciferase Assay System (Promega).
# PTGR2 [2] = biological target: T1, PTGR2; test: In vitro LCMS-based activity assay for PTGR2 (15-keto-PGE2 reductase activity); assay type: biochemical
# Protocol: Aliquots (1 μL) of test compounds dissolved in DMSO were transferred to 1.5 mL eppendorf tubes followed by addition of recombinant human PTGR2 (44 μL, 200 nM final concentration) in freshly prepared reaction buffer (Tris Buffer, 1 mM EDTA, 50 μM TCEP, 300 μM NADPH). The resulting mixture was vortexed and then incubated at 37° C. for 20 min. Next, a 5 μL solution of 15-keto-PGE2 substrate (20 μM final concentration) in reaction buffer was added and the reaction was allowed to proceed for 30 min at 37° C. Reactions were quenched by the addition of 0.5% AcOH in ethyl acetate (800 μL), water (300 μL) and 100 μL of internal standard PGE2-d4 (30 pmol/sample) dissolved in 1:1 methanol/water. Phases were separated by centrifugation and the organic layer was collected and dried under a stream of N2, then stored at −80° C. until analysis. Directly prior to analysis, samples were reconstituted in 100 μL of MeCN:H2O (1:1, v/v) and analyzed by LC/MS/MS. All conditions were performed in triplicate and repeated at least three independent times.
# The following MS parameters were used to measure the indicated metabolites by MRM (precursor ion, product ion, collision energy, polarity): PGE2-d4 (355, 275, 18), 13,14-dihydro-15-keto-PGE2 (351, 333, 18) and 15-keto-PGE2 (349, 161, 20). 15-keto-PGE2 and 13,14-dihydro-15-keto-PGE2 levels were quantified by determining peak areas in relation to internal standard PGE2-d4. Non-deuterated 15-keto-PGE2 and 13,14-dihydro-15-keto-PGE2 standards were used to confirm retention time and fragmentation.
# All data fitting and statistical analysis performed using GraphPad Prism version 6.00 for Windows, GraphPad Software, La Jolla Calif. USA, www.graphpad.com. Statistical values including the exact n and statistical significance are also reported. Probe binding blockade and PTGR2 inhibition curves are plotted as mean±SD (n=3 or 4 per group) for a representative biological replicate using a variable slope (four parameter) non-linear fit. Gene expression data are presented as mean±SD (n=3 per group). HSC5 metabolite data are shown as mean±SD (n=3 per group). Statistical significance was defined as P<0.05 and determined by 2-tailed Student t tests, or two-way ANOVA with Bonferroni's post-tests.
# T1 sequence (Q8N8N7 whole entry, the tested form may be a part): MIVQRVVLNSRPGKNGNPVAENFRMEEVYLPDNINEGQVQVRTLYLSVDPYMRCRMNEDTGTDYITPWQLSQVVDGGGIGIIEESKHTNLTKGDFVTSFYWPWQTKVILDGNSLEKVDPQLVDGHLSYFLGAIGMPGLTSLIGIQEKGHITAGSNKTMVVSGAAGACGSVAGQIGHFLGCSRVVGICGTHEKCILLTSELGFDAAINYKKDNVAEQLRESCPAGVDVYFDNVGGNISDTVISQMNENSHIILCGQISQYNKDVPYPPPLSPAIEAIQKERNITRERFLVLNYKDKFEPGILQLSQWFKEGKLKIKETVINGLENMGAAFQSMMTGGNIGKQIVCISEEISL
smiles,measurement,setting,value
"COc1ccccc1N1CCN(C(=O)Cc2ccccc2)CC1 [Compound 22, 1-(4-(2-Methoxyphenyl)piperazin-1-yl)-2-phenylethan-1-one]",15-keto-PGE2-dependent PPARγ transcriptional activity,PTGR2 [1],increased; also recorded: concentration-dependent rescue
same,effect on 15-keto-PGE2 reductase (catalytic) activity of recombinant PTGR2,PTGR2 [2],inhibited
same,increased potency relative to 20,PTGR2 [2]; in assays measuring either competition of 8-labeling or 15-keto-PGE2 reductase activity of recombinant PTGR2,> 20 fold
same,IC50,"PTGR2 [2]; recombinant PTGR2, read-out: IC50 for inhibition of PTGR2-mediated reduction of 15-keto-PGE2 (15-keto-PGE2 reductase activity)",600 nM
